Read-outs that look alike come from different tables or passages of the source.
Columns and labels:
[1] = tested on: Salmonella typhimurium G46 missense histidine-auxotroph; assay: Host mediated assay (in vivo mutagenicity), G46 indicator (Table 22); design: species or system Salmonella typhimurium in Cox white Swiss male mice
Experimental: Cox white Swiss male mice 25-30 grams were used in all in vivo tests.
A. Drug Administration: Appropriate solvents were used where applicable with a solvent control run within each test. […] The organisms were grown to stationary phase, then diluted with normal saline to give an inoculum near 1×10^8 organisms per milliliter. The abdominal area of the drug-treated mouse was swabbed with alcohol and two milliliters of bacterial culture were injected into the abdominal cavity of the mouse. The mice were returned to their cages for 3-4 hours.
C. Autopsy and Recovery: The mice were sacrificed individually by cervical dislocation prior to each autopsy. The abdominal areas were soaked with ethanol. The peritoneum was bared and 2.5 ml. of sterile normal saline was injected into the peritoneal cavity using a sterile (3-ml. plastic syringe with a 20-gauge needle. After insertion, the needle is turned bevel up and the saline was expelled into the cavity; while the needle remains through the peritoneum, keeping the point of the needle in sight pressed against the peritoneal wall, the abdomen of the mouse was massaged to mix contents. The saline wash was removed from the abdominal cavity back into the syringe. The needle was removed and the contents expelled into an appropriately marked tube and iced 4° C.
D. Dilution and Plating: One-ml. samples were plated at 10° dilution on all mice to determine revertants (histidine+).
A one-milliliter sample from the untreated dilutions from control animals is plated 10^-6, 10^-7, and 10^-8 dilutions with excess histidine to determine mutable population (histidine-).

[2] = tested on: Salmonella typhimurium G46 missense histidine-auxotroph; assay: Qualitative in vitro prescreen for mutagenicity, G46 indicator (Table 22); details: 200 mcg disc
Excerpt: Filter paper discs 1/4" were impregnated with 200 mcg of test compound using either H2 O or DMSO as solvent. The discs were placed on Petri dishes containing minimal media which had been individually seeded with one of the twelve tester strains. […] A uniform circle of colonies appear around the pad when a compound with mutagenic potential is present. The test compound forms a concentration gradient as it diffuses from the pad. Occasionally, there is a clear ring in close proximity to the pad surrounded by a uniform circle of revertant colonies which indicates a lethal mutation at high concentration of compound and nonlethal mutation at lesser concentration. A single pad thus allows one to test a compound over a wide range of concentrations. Histidine+ colonies were developed enough to read after 48 hr. incubation at 37° C. The plates were read as follows:
A. background zone, if present, is measured in millimeters, if not, a negative is recorded (-).
B. mutant zone is measured in millimiters, if present; if not, a negative (-) is recorded.
C. the mutation frequency can be estimated from density of mutant colonies as follows:
1. Low frequency--few colonies
2. Moderate frequency--many colonies
3. High frequency--dense ring of colonies
4. No colonies recorded (-)

[3] = tested on: Salmonella typhimurium G46 missense histidine-auxotroph; assay type: cell-based
Experimental: Compounds found active in the qualitative test were further tested. The culture to be tested was grown to stationary phase in tryptone yeast broth and then diluted to a viable count of about 9×10^7 organisms per milliliter.
Eleven log4 dilutions of the test compound were made covering a range that would allow survival of nonlethal mutants. The dilutions were made in Spizizen's minimal media with minute amounts of histidine and biotin (20 nM) each in […]. tubes. Each tube contained 3 ml. after dilution. Replicate 1 ml. aliquots of test organism were added to each tube including six "0" drug tubes. Final drug concentrations were calculated from 4-ml. volumes (3 ml. drug dilution +1 ml. test organism). Two of the "0" drug tubes were immediately plated at 10° dilution in minimal medium and 10^-5, 10^-6, 10^-7 dilutions in medium containing excess histidine (40 mcg/ml.) Spontaneous revertants (histidine+) were detected in the 10° dilution. Mutable population (histidine-) were detected in the 10^-5, 10^-6, and 10^-7 dilutions. All remaining dilutions were incubated in a Dubonoff shaker at 37° C. for 4 hr., then iced at 4° C. […] A 1-ml. aliquot from each "0" control was also plated at 10^-6, 10^-7, and 10^-8 dilutions in media with excess histidine to detect growth of mutable population (histidine-); normally there are 3-4 generations of the mutable population. All minimal media plates were counted. A dose response increase in revertants above spontaneous background indicated mutagenic potential of a test compound. […] Lethality has occurred to both populations, histidine+ and histidine-, at the same compound levels in all drugs tested to date.
The results are recorded as mutants test/mutants control.

[4] = tested on: antibody to sheep red blood cells; assay: 75 percent reduction of control antibody titer in mice by subcutaneous, percutaneous and oral routes (Table 16); assay type: in vivo, male Swiss mice; details: Mus musculus, Erythrocyte
Experimental: Subcutaneous, percutaneous, and oral activity have been achieved as indicated in Table 16 which follows employing representative compounds from the above entitled application. […] Except as indicated, the tests were performed using groups of five 20-gram male Swiss mice injected with 5×10^7 sheep red blood cells intravenously for each drug level. Ten (daily) administrations of drug were made commencing three days prior to red blood cell injection. On the day following the final treatment (7 days after red blood cell injection) the animals were bled by cardiac puncture, the sera from each five-mouse-group were pooled, and antibody titers of these serum pools and corresponding serum pools from control (untreated) mouse groups were determined. The results are expressed as the minimum drug dose effecting 75 percent reduction of control antibody titer: […]

[5] = tested on: graft versus host reaction; assay: Graft versus host (GVH) reaction, spleen weight (Tables 20, 21); assay type: in vivo, mice (C57BL donors, F1 hybrid C57BL×C3H recipients)
Experimental: In this determination, […] (C57BL) mouse spleen cells are injected into mice of an F1 hybrid strain (C57BL×C3H). […] The injected cells, however, mount a reaction to the recipient's tissues due to the foreign C3H-derived antigens. As a consequence, the recipient's spleen becomes enlarged. Immunosuppressive therapy prevents or reduces this enlargement. Thus, spleen weights provide a measure of the GVH reaction and its reduction under immunosuppression.
Treated and GVH control animals receive an intraperitoneal injection of 1.2×10^9 splenic lymphocytes from the C57 donors. Spleens are weighed ten days later. Spleen weights derived from groups of recipient mice receiving genetically homologous, i.e., syngeneic cells (C57BL×C3H) provide normal control values for calculating percent inhibition in drug-treated groups. For example, mice given 13 daily topical doses of 1-(4,5,6,7-tetra-hydro-2-benzothiazolyl)-3-phenyl urea show a 62% reduction in GVH reaction relative to controls, as set forth in Table 20.
Using this procedure, three compounds from the above useful in the processes of this invention have been compared with several reference immunosuppressive drugs. Treatment levels defining the 50 percent inhibitory dose have been determined.

neoplasms in NZBxW mice = details: cited from earlier work
[6] = tested on: antibody to the sheep red blood cell antigen; assay: Antibody response to sheep red blood cells in marmosets, injected drug; assay type: in vivo; details: 25 mg/kg daily for three days
Experimental: In order to determine if the compounds disclosed herein had immunoalterant activity in a primate species, representative numbers of the series were tested in marmosets. 1-(2-Fluorophenyl)-3-(6-methoxy-2-benzothiazolyl) urea was injected in 25 mg/kg doses daily for three days into five marmosets. A similar group of five untreated marmosets was reserved as a control series. On the day following the third treatment, all animals received intraperitoneal injections of antigen (1×10^9 sheep red blood cells). On the 7th day following antigen injection, serum levels of antibody to the sheep red blood cell antigen were determined.

[7] = tested on: antibody response to sheep blood cells (hemaglutination titer); assay: Immune regulating test: suppression of hemaglutination titer by 4-fold factor in mice (i.p. drug, i.p. sheep blood cells), Tables 1-15; assay type: in vivo, Swiss mice; details: Mus musculus, ip, 192 h, × 3, intraperitoneal, minimum dose to suppress the hemaglutination titer by a 4-fold factor, 8 days after antigen, read-out: Immuno-Suppressant ED4-Fold
Experimental: The ability of compounds according to the above formulas to alter immune mechanisms in a host animal was measured by their activity according to the following test. Groups of five 20-gram Swiss mice were injected intraperitoneally with standardized suspensions of an antigen--in this instance sheep blook cells. […] Eight days after injection of the antigen, the mice were bled and the sera from each group pooled. Antibody determinations were made on the serum pools by a hemaglutination pattern procedure and comparisons made between treated and control animals. In Tables 1-18 which follow, the activity of the compounds listed therein is given in terms of the minimum dose of drug necessary to suppress the hemaglutination titer by a 4-fold factor in the treated mice as compared with control titers.

[8] = sc, subcutaneous, × 10 daily doses commencing 3 days before antigen i.v., read-out: Lowest Dose Producing 75% Immunosuppression, Subcutaneous
[9] = oral, × 10 daily doses commencing 3 days before antigen i.v., read-out: Lowest Dose Producing 75% Immunosuppression, Oral
[10] = percutaneous, × 10 daily doses commencing 3 days before antigen i.v., read-out: Lowest Dose Producing 75% Immunosuppression, Percutaneous
[11] = 300 mg/kg, s.c., MT/MC of 3 would indicate mutagenic potential

## CC(=O)Oc1ccccc1C(=O)O [ASA, Acetylsalicylic Acid]
[1]; 30 mg/kg, oral gavage
  IN VIVO mutants test/mutants control: 1.11
[1]; 300 mg/kg, oral gavage
  IN VIVO mutants test/mutants control: 1.06
[2]
  IN VITRO QUALITATIVE ACTIVITY: N
[3]; 750 mcg/ml
  IN VITRO QUANTITATIVE MT/MC: .58

## Cn1cnc([N+](=O)[O-])c1Sc1ncnc2nc[nH]c12 [Azathioprine, reference compound]
[1]; high levels
  mutagenic potential in the host-mediated system: POSSIBLE MUTAGENIC POTENTIAL
[4]; [8]
  minimal effective dose: 50 to 100 mg/kg
[4]; [9]
  minimal effective dose: 50 mg/kg
[4]; [10]
  minimal effective dose: 100 mg/kg
[5]; 5 mg/kg × 13, s.c.
  Percent GVH Inhibition: 43%
[5]; 10 mg/kg × 13, s.c.
  Percent GVH Inhibition: 61%
Neoplasms in NZBxW mice; Casey, New Zealand Medical Journal 74,290 (1973), control 0 percent
  increase in neoplasms: 58%

## C[C@]12CCC(=O)C=C1CC[C@@H]1[C@@H]2C(=O)C[C@@]2(C)[C@H]1CC[C@]2(O)C(=O)CO [Cortisone, reference compound]
[4]; [8]
  minimal effective dose: 25 mg/kg
[4]; oral, × 10, **antigen given intraperitoneally, read-out: Lowest Dose Producing 75% Immunosuppression, Oral
  minimal effective dose: 200 to 400 mg/kg
[4]; [10]
  minimal effective dose: 50 mg/kg
[5]; 1.56 mg/kg × 13, s.c.
  Percent GVH Inhibition: 48%
[5]; 3.12 mg/kg × 13, s.c.
  Percent GVH Inhibition: 82%

## O=P1(N(CCCl)CCCl)NCCCO1 (stereo not shown) [Cyclophosphamide, reference compound]
[4]; [9]
  minimal effective dose: 25 mg/kg
[4]; [10]
  minimal effective dose: 25 mg/kg
[5]; 6.25 mg/kg × 13, s.c.
  Percent GVH Inhibition: 32%
[5]; 12.5 mg/kg × 13, s.c.
  Percent GVH Inhibition: 53%
Neoplasms in NZBxW mice; Walker and Bole, J. Lab. Clin. Med. 82,619 (1972), control 5 percent
  incidence of neoplasms: 100%

## CN(C)N=O [DMNA, N-nitrosodimethylamine]
[1]; 3 mg/kg, s.c.
  IN VIVO mutants test/mutants control: 1.16
[1]; 30 mg/kg, s.c.
  IN VIVO mutants test/mutants control: 43.6
[1]; [11]
  IN VIVO mutants test/mutants control: 620
[1]; mouse, in vivo
  requirement of host mediation for mutagenic potential: requiring host-mediation to demonstrate mutagenic potential
[2]
  IN VITRO QUALITATIVE ACTIVITY: N
[3]; 750 mcg/ml
  IN VITRO QUANTITATIVE MT/MC: .33

## CN(N=O)C(=O)N[C@H]1C(O)O[C@H](CO)[C@@H](O)[C@@H]1O (stereo partly shown) [STREPTOZOTOCIN]
[1]; 3 mg/kg, s.c.
  IN VIVO mutants test/mutants control: 2782
[1]; 30 mg/kg, s.c.
  IN VIVO mutants test/mutants control: 444
[1]; .03 mg/kg, s.c.
  IN VIVO mutants test/mutants control: 3.35
[1]; .3 mg/kg, s.c.
  IN VIVO mutants test/mutants control: 278
[2]
  IN VITRO QUALITATIVE FREQ (mutation frequency): HIGH
[3]; .11 mcg/ml
  IN VITRO QUANTITATIVE MT/MC: 6750

## C1CN1c1nc(N2CC2)nc(N2CC2)n1 [TEM, trimethylenemelamine]
[1]; 3 mg/kg, s.c.
  IN VIVO mutants test/mutants control: 13
[1]; 30 mg/kg, s.c.
  IN VIVO mutants test/mutants control: 27
[1]; [11]
  IN VIVO mutants test/mutants control: 13
[1]; .3 mg/kg, s.c.
  IN VIVO mutants test/mutants control: 3.2
[2]
  IN VITRO QUALITATIVE FREQ (mutation frequency): MEDIUM
[3]; 180 mcg/ml
  IN VITRO QUANTITATIVE MT/MC: 24

## COc1ccc2nc(NC(=O)Nc3ccccc3F)sc2c1 [Table 11: o-fluorophenyl, 6-CH3 O, S, 1-(2-Fluorophenyl)-3-(6-methoxy-2-benzothiazolyl) urea]
[6]; injected, five marmosets, 7th day following antigen
  treated animals showing detectable antibody: only one of the treated animals
[6]; controls titers from 1-10 to 1-80
  antibody titer of the responding treated animal: 1-10
[7]
  minimal effective dose: < 3.1 mg/kg

## O=C(Nc1ccccc1)Nc1nc2ccccc2s1 [Table 11: phenyl, H, S, 1-(2-benzothiazolyl)-3-phenyl urea]
[4]; [8]
  minimal effective dose: 1 mg/kg
[4]; [9]
  minimal effective dose: 25 mg/kg
[4]; [10]
  minimal effective dose: 6.2 to 12.5 mg/kg
[5]; 0.8 mg/kg × 13, s.c.
  Percent GVH Inhibition: 29%
[5]; 1.6 mg/kg × 13, oral
  Percent GVH Inhibition: 46%
[5]; 1.6 mg/kg × 13, s.c.
  Percent GVH Inhibition: 54%
[5]; 3.12 mg/kg × 13, oral
  Percent GVH Inhibition: 64%
[7]
  minimal effective dose: 6.2 mg/kg

## O=C(Nc1ccccc1)Nc1nc2c(s1)CCCC2 [Table 13: phenyl, 1-(4,5,6,7-tetrahydro-2-benzothiazolyl)-3-phenyl urea]
[4]; [8]
  minimal effective dose: 12.5 mg/kg
[4]; [9]
  minimal effective dose: 25 to 100 mg/kg
[4]; [10]
  minimal effective dose: 3.1 mg/kg
[5]; 50 mg/kg × 13, oral
  Percent GVH Inhibition: 41%
[5]; 100 mg/kg × 13, daily topical
  Percent Inhibition of GVH reaction: 62%
[5]; 100 mg/kg × 13, daily topical, GVH control 11.03 ± 0.35, syn. control 5.20 ± 0.37
  Mg Spleen/g Body Weight ± S.E.: 7.42 ± 0.63 Mg Spleen/g Body Weight
[5]; 100 mg/kg × 13, oral
  Percent GVH Inhibition: 54%
[7]
  minimal effective dose: 25 mg/kg

— US4153709A, “N-Heterocyclic ureas as immune regulants” (Eli Lilly and Company, priority 1977, dated 1979)
